# Key:
# Format in all cases: functional
# NCI-H460 [1] = experiment: Cytotoxicity against human NCI-H460 cells assessed as growth inhibition at 0.1 ug/ml after 24 hrs by MTT assay; conditions: NCI-H460, 24 h, read-out: GI
# [2] = Cytotoxicity against human HO8910 cells assessed as growth inhibition at 1 ug/ml after 24 hrs by MTT assay; conditions: HO-8910, 24 h, read-out: GI
# [3] = Cytotoxicity against human HO8910 cells assessed as growth inhibition at 0.1 ug/ml after 24 hrs by MTT assay; conditions: HO-8910, 24 h, read-out: GI
# KB [4] = experiment: Cytotoxicity against human KB cells assessed as growth inhibition at 100 ug/ml after 24 hrs by MTT assay; conditions: read-out: GI
# KB [5] = experiment: Cytotoxicity against human KB cells assessed as growth inhibition at 10 ug/ml after 24 hrs by MTT assay; conditions: read-out: GI
# KB [6] = experiment: Cytotoxicity against human KB cells assessed as growth inhibition at 1 ug/ml after 24 hrs by MTT assay; conditions: read-out: GI
# KB [7] = experiment: Cytotoxicity against human KB cells assessed as growth inhibition at 0.1 ug/ml after 24 hrs by MTT assay; conditions: read-out: GI
# Bel-7402 [8] = experiment: Cytotoxicity against human Bel7402 cells assessed as growth inhibition at 100 ug/ml after 24 hrs by MTT assay; conditions: Bel-7402, 24 h, read-out: GI
# Bel-7402 [9] = experiment: Cytotoxicity against human Bel7402 cells assessed as growth inhibition at 10 ug/ml after 24 hrs by MTT assay; conditions: Bel-7402, 24 h, read-out: GI
# Bel-7402 [10] = experiment: Cytotoxicity against human Bel7402 cells assessed as growth inhibition at 1 ug/ml after 24 hrs by MTT assay; conditions: Bel-7402, 24 h, read-out: GI
# Bel-7402 [11] = experiment: Cytotoxicity against human Bel7402 cells assessed as growth inhibition at 0.1 ug/ml after 24 hrs by MTT assay; conditions: Bel-7402, 24 h, read-out: GI
# NCI-H460 [12] = experiment: Cytotoxicity against human NCI-H460 cells assessed as growth inhibition at 100 ug/ml after 24 hrs by MTT assay; conditions: NCI-H460, 24 h, read-out: GI
# NCI-H460 [13] = experiment: Cytotoxicity against human NCI-H460 cells assessed as growth inhibition at 10 ug/ml after 24 hrs by MTT assay; conditions: NCI-H460, 24 h, read-out: GI
# NCI-H460 [14] = experiment: Cytotoxicity against human NCI-H460 cells assessed as growth inhibition at 1 ug/ml after 24 hrs by MTT assay; conditions: NCI-H460, 24 h, read-out: GI
# [15] = Cytotoxicity against human HO8910 cells assessed as growth inhibition at 100 ug/ml after 24 hrs by MTT assay; conditions: HO-8910, 24 h, read-out: GI
# [16] = Cytotoxicity against human HO8910 cells assessed as growth inhibition at 10 ug/ml after 24 hrs by MTT assay; conditions: HO-8910, 24 h, read-out: GI
SMILES,inhibition of growth at 0.1 µg/mL (NCI-H460 [1]) [%],inhibition of growth at 1 µg/mL [2] [%],inhibition of growth at 0.1 µg/mL [3] [%],inhibition of growth at 100 µg/mL (KB [4]) [%],inhibition of growth at 10 µg/mL (KB [5]) [%],inhibition of growth at 1 µg/mL (KB [6]) [%],inhibition of growth at 0.1 µg/mL (KB [7]) [%],inhibition of growth at 100 µg/mL (Bel-7402 [8]) [%],inhibition of growth at 10 µg/mL (Bel-7402 [9]) [%],inhibition of growth at 1 µg/mL (Bel-7402 [10]) [%],inhibition of growth at 0.1 µg/mL (Bel-7402 [11]) [%],inhibition of growth at 100 µg/mL (NCI-H460 [12]) [%],inhibition of growth at 10 µg/mL (NCI-H460 [13]) [%],inhibition of growth at 1 µg/mL (NCI-H460 [14]) [%],inhibition of growth at 100 µg/mL [15] [%],inhibition of growth at 10 µg/mL [16] [%]
Cc1cccc(NC(=O)CCCCC(S)CCS)c1 (stereo unspecified),9.34,2.76,4.92,17.5,7.23,3.31,5.75,7.08,14.1,11.1,10.1,23.1,7.67,9.43,–,–
O=C(CCCCC(S)CCS)Nc1ccccc1 (stereo unspecified),5.5,6.38,7.37,15.8,8.62,11.6,9.49,7.67,3.72,1.32,0.85,25.4,8.37,4.3,13.7,5.49
O=C(CCCCC(CCSC(=O)c1ccccc1)SC(=O)c1ccccc1)Nc1ccccc1Cl (stereo unspecified),15.1,2.35,–,–,2.53,3.05,3.62,–,6.63,7.37,5.72,–,12.1,14.4,–,1.33
COc1ccc(NC(=O)CCCCC2CCSS2)cc1 (stereo unspecified),3.82,3.54,1.64,48.3,2.94,5.03,4,38.7,6.32,7.93,5.48,45.7,9.82,0.51,43.8,6.34
O=C(CCCCC1CCSS1)Nc1ccccc1Cl (stereo unspecified),8,7.74,8.17,0.72,–,–,5.11,4.74,–,5.33,6.83,3.38,14.6,10.1,–,4.66
CC(=O)SCCC(CCCCC(=O)O)SC(C)=O (stereo unspecified),9.96,–,–,8.03,8.88,12.4,7.24,8.35,9.22,12.8,10.3,11,6.04,9.89,–,1.61
O=C(CCCCC(S)CCS)Nc1ccc(F)cc1 (stereo unspecified),5.64,12.2,8.11,28.2,13.3,8.84,6.78,11.7,6.14,–,–,41.6,18.1,6.84,22.2,6.81
O=C(CCCCC(S)CCS)Nc1cccc(C(F)(F)F)c1 (stereo unspecified),11.9,13.7,10.8,30.5,1.97,–,8.41,25.3,1.21,1.66,2.85,32.1,11.4,8.26,34.8,8.86

# Source: ChEMBL document CHEMBL1157124, “Synthesis and anticancer evaluation of alpha-lipoic acid derivatives” (Bioorg Med Chem Lett, 2010)
